Assay results reported in PubChem BioAssay (NCI).
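Cultured in 96-well plates, cells were exposed to test compound for 48 hours across five concentrations. GI50 = concentration required for 50% inhibition of growth. TGI: concentration producing complete growth inhibition.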

What follows are molecules tested on MDA-MB-468 breast (assay: NCI-60 cell line screen, 48 h).

SMILES | GI50 [µM] | TGI [µM]
Ic1ccc(Nc2nc3nonc3nc2Nc2ccc(I)cc2)cc1 | 0.174 | 1.69
COc1cc(C2c3cc4c(cc3OC(N3CCCC3)C2C)OCO4)cc(OC)c1O (centres undefined) | 17.5 | > 100
O=C(Nc1ccc(OS(=O)(=O)c2ccccc2)cc1)C12CC3CC(CC(C3)C1)C2 | 3.8 | > 100
O=C(OCc1ccc2cccc(O)c2n1)N1CCN(C(=O)c2cc3cc(F)ccc3[nH]2)CC1 | 1.51 | 3.28
CC1OC2CC(=O)OC2C2=C1C(=O)c1c(O)cccc1C2=O (centres undefined) | 0.0208 | 0.0525
C/C(=C\CCc1ccoc1)CC/C=C(\C)CCCC1=CC(=O)OC1 | 2.19 | 8.41
Cc1c2cccnc2c(C)c2c1c1cc(CO)ccc1n2C | 0.183 | 0.561
COc1cc2c(cc1OC)C(Sc1ccc(C)cc1)c1c(nc(N)c(C#N)c1N)O2 (centres undefined) | 1.16 | 2.5
NCCCNc1nc2ccccc2c2c(=O)c3cc(OC(F)(F)F)ccc3sc12 | 1.76 | 3.42
C=C(C=O)C1CCC2(C(=O)O)CCC3(C)C(CCC4C5(C)CCC(O)C(C)(C)C5CCC43C)C12 (centres undefined) | 3.27 | 20.6
COC(=O)/C=C/c1cc(O)c2oc(-c3ccc(O)c(O)c3)c(C(=O)OC)c2c1 | 1.82 | 12.9
O=C1NC(=Nc2ccccc2)S/C1=C\c1ccc2ncccc2c1 | 2.06 | > 25
COc1ccc(N(C)c2ncnc3occ(C)c23)cc1 | < 0.01 | 15.4
CCOc1nc(-c2ccccc2)cc2c(O)c(-c3nnco3)[nH]c(=O)c12 | 1.55 | > 25.8
Cc1ccc2c(n1)C(=O)c1[nH]c3ccccc3c1C2=O | 0.51 | 3.3
Cc1ccc(C(SCC(N)C(=O)O)(c2ccccc2)c2ccc(C)cc2)cc1 (centres undefined) | 0.118 | 0.533

SMILES | GI50 [µM] | TGI [µM]
Cn1c(=O)c2c(nc(Nc3cc(=O)[nH]c(=O)[nH]3)n2Cc2ccccc2)n(C)c1=O | 54.8 | > 100
CC(C)(C)C(=O)OCOP(=O)(OCOC(=O)C(C)(C)C)C1CCCN(O)C1=O (centres undefined) | 0.977 | 5.48
O=[N+]([O-])c1ccc(C=C2C(Cl)=C(Cl)C(Cl)=C2Cl)cc1 | 1.7 | 3.35
Oc1ccc(Cl)cc1Cc1cc(Cl)cc(Cl)c1O | 2.79 | 9.41
COc1ccc(C(=O)c2cc(OC)c(C)c(OC)c2)cc1OC(=O)CCl | 2.39 | 21.6
CCN1CCN(c2ccc(Nc3cc(N(C)C(=O)Nc4c(Cl)c(OC)cc(OC)c4Cl)ncn3)cc2)CC1 | 3.01 | 11.7
C#Cc1cccc(Nc2ncnc3cc(OC)c(OCCCCCCC(=O)NO)cc23)c1 | 0.00753 | 0.0814
COc1cc(C(=O)c2cc(C)c3[nH]c4ccc(Cl)cc4c3c2C)cc(OC)c1OC | 0.0385 | 4.84
O=S(=O)(Nc1cc(F)cc(Cl)c1)c1ccc(-c2cnc(C3CC3)o2)cc1 | 0.491 | 6.78
Clc1ccc2c(NCCCNc3nccc(Nc4ccc(Br)cc4)n3)ccnc2c1 | 1.61 | 3.21
CNCCCn1cc(C2=C(c3cn(C)c4ccccc34)C(=O)NC2=O)c2ccccc21 | 3.59 | 7.33
CC/C(=C(/c1ccc(OCCN(C)C)cc1)c1ccc(OC(=O)CCCCC(=O)c2c(C)[nH]c(/C=C3\N=C(c4ccc[nH]4)C=C3OC)c2C)cc1)c1ccccc1 | 2.47 | 14.7
Cn1cc(C2=C(c3ccc4ccccc4c3)C(=O)NC2=O)c2ccccc21 | 6.24 | > 25
CC(SC(C)C(=O)N/N=C/c1cccc(Cl)c1)C(=O)N/N=C\c1cccc(Cl)c1 (centres undefined) | 21.7 | 52.9
COCCOc1cc(F)c2c(Nc3ccc(NC(=O)Cn4cc(C(C)C)nn4)cc3)ncnc2c1 | 57.1 | > 100
C=C(C)[C@@]12OC3(/C=C/C=C/CCCCC)O[C@@H]1[C@@H]1[C@@H]4O[C@]4(CO)[C@@H](O)[C@]4(O)C(=O)C(C)=C[C@H]4[C@@]1(O3)[C@H](C)[C@H]2OC(=O)c1ccccc1 | 1.37 | 2.92
